Drawing on patent publication US8324245B2, “Quinoline derivative and quinazoline derivative inhibiting self-phosphorylation of hepatocytus proliferator receptor, and medicinal composition containing the same” (Kyowa Hakko Kirin Co., Ltd., priority 2001, dated 2012), this text covers IC50 for 35 compounds.

As a reminder, the IC50 is the concentration that inhibits the measured activity by half.

The target of this assay is T1, met (HGF receptor) in human gastric cancer cells MKN45 (Homo sapiens, UniProt P08581).
T1 construct: endogenous in cells; host or cells: MKN45 human gastric cancer cells
T1 sequence (P08581 25-1390): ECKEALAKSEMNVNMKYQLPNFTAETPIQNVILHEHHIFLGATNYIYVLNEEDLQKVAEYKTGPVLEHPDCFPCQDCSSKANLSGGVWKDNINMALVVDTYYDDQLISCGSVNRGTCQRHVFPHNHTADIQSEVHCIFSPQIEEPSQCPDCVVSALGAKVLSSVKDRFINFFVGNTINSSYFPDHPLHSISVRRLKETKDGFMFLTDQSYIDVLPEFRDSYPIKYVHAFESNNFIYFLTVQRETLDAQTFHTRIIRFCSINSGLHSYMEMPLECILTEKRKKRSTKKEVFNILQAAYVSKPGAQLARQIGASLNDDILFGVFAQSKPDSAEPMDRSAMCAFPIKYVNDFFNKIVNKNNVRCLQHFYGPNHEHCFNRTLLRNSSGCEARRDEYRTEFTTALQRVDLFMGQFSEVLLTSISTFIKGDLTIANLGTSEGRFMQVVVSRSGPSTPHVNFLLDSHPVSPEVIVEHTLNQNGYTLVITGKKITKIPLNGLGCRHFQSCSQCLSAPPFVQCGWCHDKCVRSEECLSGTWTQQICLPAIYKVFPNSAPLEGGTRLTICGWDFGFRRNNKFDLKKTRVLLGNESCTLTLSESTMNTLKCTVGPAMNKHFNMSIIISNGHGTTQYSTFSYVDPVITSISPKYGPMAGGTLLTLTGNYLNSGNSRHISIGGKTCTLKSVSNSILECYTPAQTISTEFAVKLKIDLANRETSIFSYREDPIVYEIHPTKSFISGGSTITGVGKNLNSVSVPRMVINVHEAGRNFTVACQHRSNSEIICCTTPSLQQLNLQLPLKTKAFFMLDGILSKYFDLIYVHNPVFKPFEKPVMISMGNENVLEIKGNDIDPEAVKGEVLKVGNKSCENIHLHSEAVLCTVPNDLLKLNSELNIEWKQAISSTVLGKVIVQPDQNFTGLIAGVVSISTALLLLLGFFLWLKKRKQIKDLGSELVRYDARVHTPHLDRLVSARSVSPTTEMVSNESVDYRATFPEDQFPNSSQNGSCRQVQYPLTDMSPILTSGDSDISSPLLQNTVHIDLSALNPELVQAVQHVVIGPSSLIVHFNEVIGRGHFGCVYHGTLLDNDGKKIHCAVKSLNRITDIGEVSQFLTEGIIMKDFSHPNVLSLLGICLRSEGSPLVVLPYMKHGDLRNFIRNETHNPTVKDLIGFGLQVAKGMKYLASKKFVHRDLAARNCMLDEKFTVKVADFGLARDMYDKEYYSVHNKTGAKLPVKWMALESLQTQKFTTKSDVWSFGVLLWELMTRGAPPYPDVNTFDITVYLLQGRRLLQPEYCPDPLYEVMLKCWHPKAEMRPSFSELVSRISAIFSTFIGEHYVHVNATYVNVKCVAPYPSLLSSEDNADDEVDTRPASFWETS
The assay can be described thus: Inhibitory activity against met-autophosphorylation using ELISA method (2), MKN45 cells, HGF-independent. The assay is classed as cell-based. An outline of the steps: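 MKN45 cells, 3×10^4 per well in RPMI with 0.1% FCS overnight, were exposed to compound in DMSO for 1 h at 37 °C without HGF. Lysates were captured on anti-phosphotyrosine (PY20) plates, Met detected with anti-Met and peroxidase secondary antibody, absorbance at 450 nm.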
Background: ELISA stands for enzyme-linked immunosorbent assay.
The compound `COc1cc(Oc2ccnc3cc(OC)c(OC)cc23)ccc1NC(=S)NC(=O)Cc1ccsc1` [Example 86, 1-[4-(6,7-dimethoxyquinolin-4-yloxy)-2-methoxyphenyl]-3-(2-thiophen-3-ylacetyl)thiourea] returned an IC50 of 23.5 nM.

For the compound `COc1cc2nccc(Oc3ccc(NC(=O)NC(=O)Nc4ccc(F)c(F)c4)cc3)c2cc1OC` [Example 264, N-(3,4-difluorophenyl)-({[4-(6,7-dimethoxy-quinolin-4-yloxy)anilino]carbonyl}amino)methanamide], the IC50 came to 347 nM.

For the compound `COc1cc2nccc(Oc3ccc(NC(=O)NC(=O)Nc4ccccc4-n4cccc4)cc3)c2cc1OC` [Example 259, N-[2-(1H-1-pyrrolyl)phenyl]-({[4-(6,7-dimethoxyquinolin-4-yloxy)anilino]carbonyl}amino)-methanamide], it took 614 nM to reach half-maximal inhibition (IC50).

In the case of `COc1cc2nccc(Oc3ccc(NC(=S)NC(=O)Cc4ccccc4Cl)cc3Cl)c2cc1OC` [Example 183, 1-[3-chloro-4-(6,7-dimethoxyquinolin-4-yloxy)phenyl]-3-[2-(2-chlorophenyl)acetyl]thiourea], the IC50 stood at 224 nM.

The compound `COc1cc2c(Oc3ccc(NC(=S)NC(=O)Cc4ccccc4)cc3F)ccnc2cc1OCCCN1CCC(CO)CC1` [Example 309, 1-(3-Fluoro-4-{7-[3-(4-hydroxymethyl-piperidin-1-yl)-propoxy]-6-methoxy-quinolin-4-yloxy}-phenyl)-3-phenylacetyl-thiourea] returned a concentration for half-maximal inhibition (IC50) of 20.1 nM.

In turn, `COc1cc2nccc(Oc3ccc(NC(=O)CC(=O)Nc4ccc(F)cc4F)cc3Cl)c2cc1OC` [Example 6, N-[3-chloro-4-(6,7-dimethoxyquinolin-4-yloxy)-phenyl]-N′-(2,4-difluorophenyl)malonamide] came in with an IC50 of 31.6 nM. This IC50 is about 1.6-fold higher than that of the compound before.

With `COc1cc2nccc(Oc3ccc(NC(=S)NC(=O)Cc4ccc(F)cc4)cc3)c2cc1OC` [Example 71, 1-[4-(6,7-dimethoxyquinolin-4-yloxy)phenyl]-3-[2-(4-fluorophenyl)acetyl]thiourea], the IC50 was found to be 29.9 nM.

For `COc1cc2nccc(Oc3ccc(NC(=O)NC(=O)Cc4ccc(F)c(F)c4)cc3F)c2cc1OC` [Example 35, 1-[2-(3,4-difluorophenyl)acetyl]-3-[4-(6,7-dimethoxyquinolin-4-yloxy)-3-fluorophenyl]urea], the IC50 was determined as 41.4 nM.

In turn, `COc1cc2c(Oc3ccc(NC(=O)CC(=O)Nc4ccc(F)cc4)cc3F)ccnc2cc1OCCCN1CCOCC1` [Example 269, N-{3-fluoro-4-[6-methoxy-7-(3-morpholin-4-yl-propoxy)quinolin-4-yloxy]phenyl}-N′-(4-fluorophenyl)-malonamide] returned an IC50 of 12.5 nM.

Compound `COc1cc2nccc(Oc3ccc(NC(=O)NC(=O)Nc4cc(C)ccn4)cc3)c2cc1OC` [Example 105, N-(4-methyl-2-pyridyl)-({[4-(6,7-dimethoxy-quinolin-4-yloxy)anilino]carbonyl}amino)methanamide] gave an IC50 of 104 nM.

Compound `COc1cc2c(Oc3ccc(NC(=O)NC(=O)Cc4ccc(F)cc4)cc3F)ccnc2cc1OCCCN1CCCCC1` [Example 47, 1-{3-fluoro-4-[6-methoxy-7-(3-piperidin-1-yl-propoxy)quinolin-4-yloxy]phenyl}-3-[2-(4-fluorophenyl)-acetyl]urea] yielded an IC50 of 215 nM. Against the preceding compound, the IC50 is about 2.1-fold higher.

The compound `COc1cc2nccc(Oc3ccc(NC(=O)NC(=O)Cc4cccs4)c(F)c3)c2cc1OC` [Example 30, 1-[4-(6,7-dimethoxyquinolin-4-yloxy)-2-fluoro-phenyl]-3-(2-thiophen-2-ylacetyl)urea] gave a half-inhibitory concentration (IC50) of 35.1 nM.

In the case of `COc1cc2nccc(Oc3ccc(NC(=O)NC(=O)CN4CCc5ccccc54)cc3F)c2cc1OC` [Example 122, 1-[2-(2,3-dihydro-1H-1-indol-1-yl)acetyl]-3-[4-(6,7-dimethoxyquinolin-4-yloxy)-3-fluorophenyl]urea], the half-inhibitory concentration (IC50) came to 303 nM.

In the case of `COc1cc2nccc(Oc3ccc(NC(=O)NC(=O)Cc4ccc(F)cc4)cc3)c2cc1OC` [Example 22, 1-[4-(6,7-dimethoxyquinolin-4-yloxy)phenyl]-3-[2-(4-fluorophenyl)acetyl]urea], half-maximal inhibition (IC50) was put at 24.6 nM.

Regarding `COc1cc2nccc(Oc3ccc(NC(=O)NC(=O)Nc4cccc(F)c4)cc3)c2cc1OC` [Example 251, N-(3-fluorophenyl)-({[4-(6,7-dimethoxy-quinolin-4-yloxy)anilino]carbonyl}amino)methanamide], the IC50 worked out at 386 nM.

`COc1cc2c(Oc3ccc(NC(=O)NC(=O)Cc4ccc(F)cc4)cc3F)ccnc2cc1OCCN1CCCCC1` [Example 48, 1-{3-fluoro-4-[6-methoxy-7-(2-piperidin-1-yl-ethoxy)quinolin-4-yloxy]phenyl}-3-[2-(4-fluorophenyl)-acetyl]urea] returned an IC50 of 224 nM.

In turn, `COc1cc2nccc(Oc3ccc(NC(=S)NC(=O)Cc4ccccc4C(F)(F)F)cc3F)c2cc1OC` [Example 201, 1-[4-(6,7-dimethoxyquinolin-4-yloxy)-3-fluorophenyl]-3-[2-(2-trifluoromethylphenyl)acetyl]-thiourea] yielded a half-inhibitory concentration (IC50) of 226 nM.

For `COc1cc2c(Oc3ccc(NC(=S)NC(=O)Cc4cccc(F)c4)cc3F)ccnc2cc1OCCN1CCOCC1` [Example 279, 1-{3-Fluoro-4-[6-methoxy-7-(2-morpholin-4-yl-ethoxy)-quinolin-4-yloxy]-phenyl}-3-[2-(3-fluoro-phenyl)-acetyl]-thiourea], the IC50 was 20.4 nM. Against the preceding compound, the IC50 is about 11-fold lower.

`COc1cc2nccc(Oc3ccc(NC(=O)NC(=O)Nc4cccc(C#N)c4)cc3)c2cc1OC` [Example 239, N-(3-cyanophenyl)-({[4-(6,7-dimethoxy-quinolin-4-yloxy)anilino]carbonyl}amino)-methanamide]: the IC50 turned out to be 1580 nM. Compared with the last compound, the IC50 is about 77-fold higher.

In turn, `COc1cc2c(Oc3ccc(NC(=O)NC(=O)Cc4ccccc4)cc3F)ccnc2cc1OCCCn1ccnc1` [Example 305, 1-{3-Fluoro-4-[7-(3-imidazol-1-yl-propoxy)-6-methoxy-quinolin-4-yloxy]-phenyl}-3-phenylacetyl-urea] gave a half-maximal inhibitory concentration (IC50) of 21.4 nM.

On to `CCCCNC(=O)CC(=O)Nc1ccc(Oc2ccnc3cc(OC)c(OC)cc23)cc1` [Example 209, N-butyl-N′-[4-(6,7-dimethoxyquinolin-4-yloxy)phenyl]malonamide], for which the IC50 amounted to 928 nM. This IC50 lies about 43-fold higher than the previous one.

Compound `COc1cc2c(Oc3ccc(NC(=O)NC(=O)Cc4ccc(F)cc4)c(F)c3)ccnc2cc1OCCCCN1CCCCC1` [Example 45, 1-{2-fluoro-4-[6-methoxy-7-(4-piperidine-1-yl-butoxy)quinolin-4-yloxy]phenyl}-3-[2-(4-fluorophenyl)-acetyl]urea] gave an IC50 of 207 nM. Compared with the last compound, the IC50 is about 4.5-fold lower.

In turn, `COc1cc2nccc(Oc3ccc(NC(=O)CC(=O)NCc4ccccc4)cc3)c2cc1OC` [Example 215, N-benzyl-N′-[4-(6,7-dimethoxyquinolin-4-yloxy)phenyl]malonamide] yielded an IC50 of 1980 nM.

`COc1cc2c(Oc3ccc(NC(=O)NC(=O)Cc4ccccc4)cc3F)ccnc2cc1OCCCN1CCCC1` [Example 292, 1-{3-Fluoro-4-[6-methoxy-7-(3-pyrrolidin-1-yl-propoxy)-quinolin-4-yloxy]-phenyl}-3-phenylacetyl-urea] yielded an IC50 of 20.3 nM.

With `COc1cc2nccc(Oc3ccc(NC(=O)NC(=O)Cc4ccc(F)cc4F)c(F)c3)c2cc1OC` [Example 33, 1-[2-(2,4-difluorophenyl)acetyl]-3-[4-(6,7-dimethoxyquinolin-4-yloxy)-2-fluorophenyl]urea], the IC50 was 61.8 nM.

`COc1cc2nccc(Oc3ccc(NC(=S)NC(=O)CC4C5CCC4CC5)c(F)c3)c2cc1OC` (centres unmarked) [Example 89] gave an IC50 of 52.6 nM.

In turn, `COc1cc2nccc(Oc3ccc(NC(=O)NC(=O)Nc4ccccc4SC)cc3)c2cc1OC` [Example 253, N-[2-(methylsulfanyl)phenyl]-({[4-(6,7-dimethoxyquinolin-4-yloxy)anilino]carbonyl}amino)-methanamide] registered an IC50 of 1340 nM. Compared with the last compound, the IC50 is about 25-fold higher.

As to `COc1cc2nccc(Oc3ccc(NC(=O)NC(=O)CSc4nccn4C)cc3Cl)c2cc1OC` [Example 130, 1-[3-chloro-4-(6,7-dimethoxyquinolin-4-yloxy)phenyl]-3-[2-(1-methyl-1H-imidazol-2-ylsulfanyl)-acetyl]urea], the IC50 was 2160 nM.

Take `COc1cc2nccc(Oc3ccc(NC(=S)NC(=O)Cc4cccc(C)c4)cc3Cl)c2cc1OC` [Example 78, 1-[3-chloro-4-(6,7-dimethoxyquinolin-4-yloxy)-phenyl]-3-(2-m-tolylacetyl)thiourea]: half-maximal inhibition (IC50) required 66.3 nM.

For `COc1cc2nccc(Oc3ccc(NC(=O)NC(=O)Nc4c(Cl)cccc4Cl)cc3)c2cc1OC` [Example 263, N-(2,6-dichlorophenyl)-({[4-(6,7-dimethoxy-quinolin-4-yloxy)anilino]carbonyl}amino)methanamide], it took 483 nM to reach half-maximal inhibition (IC50). Against the preceding compound, the IC50 is about 7.3-fold higher.

On to `COc1cc2nccc(Oc3ccc(NC(=S)NC(=O)Cc4ccccc4F)cc3Cl)c2cc1OC` [Example 152, 1-[3-chloro-4-(6,7-dimethoxyquinolin-4-yloxy)phenyl]-3-[2-(2-fluorophenyl)acetyl]thiourea], for which half-maximal inhibition (IC50) required 248 nM.

As for `COc1cc2nccc(Oc3ccc(NC(=O)NC(=O)Nc4c(C)cccc4C)cc3)c2cc1OC` [Example 258, N-(2,6-dimethylphenyl)-({[4-(6,7-dimethoxy-quinolin-4-yloxy)anilino]carbonyl}amino)methanamide], half-maximal inhibition (IC50) required 357 nM.

In turn, `COc1cc2nccc(Oc3ccc(NC(=O)NC(=O)Nc4ncc(C)cc4Br)cc3)c2cc1OC` [Example 230, N-(3-bromo-5-methyl-2-pyridyl)-({[4-(6,7-dimethoxyquinolin-4-yloxy)anilino]carbonyl}amino)-methanamide] had an IC50 of 340 nM.

Take `CCOCCC(=O)NC(=S)Nc1ccc(Oc2ccnc3cc(OC)c(OC)cc23)c(Cl)c1` [Example 159, 1-[3-chloro-4-(6,7-dimethoxyquinolin-4-yloxy)phenyl]-3-(3-ethoxypropionyl)thiourea]: half-maximal inhibition (IC50) required 585 nM. This IC50 lies about 1.7-fold higher than the previous one.

`COc1cc2nccc(Oc3ccc(NC(=S)NC(=O)Cc4ccc(Cl)cc4)cc3Cl)c2cc1OC` [Example 189, 1-[3-chloro-4-(6,7-dimethoxyquinolin-4-yloxy)phenyl]-3-[2-(4-chlorophenyl)acetyl]thiourea] displayed an IC50 of 232 nM.
